{"source": "patent US9399662B2", "about": "“Concurrent chemotherapy and immunotherapy” (Duke University, priority 2005, dated 2016)", "system": "CD4+CD25+FoxP3+ regulatory T cells and CD8+ T cells", "experiment": "Flow cytometry of CD8+ T cell and Treg subsets during an immunochemotherapy cycle", "type": "in vivo, human", "details": "day 12 of temozolomide cycle (5/21 schedule), vaccine on day 19", "description": "To characterize the response of the various T cell populations during a cycle of temozolomide (5/21 schedule) and concurrently administered vaccine (day 19 on this example), we obtained peripheral blood on days 0, 3, 5, 12, 19, 23, 25 and 26. By flow analysis cytometry, we investigated the percentage of the CD8+ T cell and CD4+CD25+FoxP3+ regulatory T cells subsets during an immunochemotherapy cycle. All fluorescence-conjugated monoclonal antibodies (mAb) (PerCP-Cy5.5-CD3, FITC-CD8, APC-CD4 and PE-CD25) were purchased from BD Biosciences except the FITC-labeled mAb of FoxP3 was made by eBioscience. The surface and intracellular staining of peripheral blood cells were performed according to the standard procedures provided by the manufacturer. Results were analyzed by FACSCalibur flow cytometer using Cellquest Pro software (BD Biosciences). In contrast to the decline of the CD8+ T cell subset, the Treg population started to increase after the administration of temozolomide for 3 days and reached its peak (0.9% of total CD4^+ T cells) on day 12. The Tregs then began to drop until day 23 while the CD8^+ T cell numbers started to recover. At the end of the course, both of CD8^+ T cell and Treg populations recovered to pre-treatment levels.", "data": [{"smiles": "Cn1nnc2c(C(N)=O)ncn2c1=O", "note": "[temozolomide]", "values": [{"measurement": "Treg population peak", "value": "0.9 % of total CD4+ T cells"}]}]}
